The subject of the test is Lmna G609G/+ mouse. In words: Life span of Lmna G609G/+ mice. It counts as in vivo. An excerpt:
Fig. 3 In vivo favorable effect of SLC-D011. A Gross morphology of Lmna^G609G/G609G mice (10 weeks old) was ameliorated after injection with SLC-D011. At the same age, the experimental group (D011) of mice were larger than vehicle-injected control (Con) subjects regardless of gender. B, C SLC-D011 increases body weight B and extends life span C of Lmna^G609G/G609G progeria model mouse (Con: n = 8; SLC-D011: n = 8). Compared with 14.8 weeks of average (ave) life span with maximum (max) life span of 15.5 weeks, 20 mg/kg of intraperitoneal (i.p) injection (twice a week) of SLC-D011 could extend the life span upto 19 weeks (max = 21 weeks). Lmna^G609G/G609G mice were injected with SLC-D011 from age of 5-week old, *p < 0.05. D Gross morphology of SLC-D011 injected Lmna^G609G/+ mouse. […] E SLC-D011 increases body weights of Lmna^G609G/+ mice (Con: n = 10; SLC-D011: n = 11), *p < 0.05. F Favorable effect of SLC-D011 on life span of Lmna^G609G/+ mice. Compared with vehicle-injected control group (ave = 46.7 weeks and max = 48 weeks), SLC-D011 treatment obviously extended the average life span to 63 weeks (max = 64 weeks). The injection was started from 32 weeks old, **p < 0.001. “Con” means vehicle (a solvent composed of DMSO and PBS)-injected mouse group. TEXT PRINTED IN THE PICTURE: (C) D011: Kaplan-Meier survival curve in Lmna^G609G/G609G: Ave=19; Kaplan-Meier survival curve in Lmna^G609G/G609G: Max=21 | (F) D011: Kaplan-Meier survival curve in Lmna^G609G/+: Ave=63; Kaplan-Meier survival curve in Lmna^G609G/+: Max=64 DOUBTS OF THE COPYIST ABOUT THIS PICTURE: Panels C and F: the Ave/Max labels are not printed with a group name. They are assigned to D011 (solid curve) or Con (dashed curve) only by their position beside the curves. / Panel C Ave=14.8, Max=15.5 and panel F Ave=46.7, Max=48 stand beside the dashed Con curve. They are left out because Con is the control group, not a substance. / No unit is printed with the Ave/Max values. Only the axis reads Age (weeks).
Animal experiments were performed in a facility certified by the Association for Assessment and Accreditation of Laboratory Animal Care in compliance with animal policies approved by Pusan National University. The mouse work was performed under the study protocol PNU-2019-2181, as approved by the Institutional Animal Care and Use Committee. Lmna^G609G/609G mice were generated by timed mating of heterozygous Lmna^G609G/+ provided by Carlos López-Otín (Universidad de Oviedo, Asturias, Oviedo, Spain). SLC-D011 was mixed with dimethyl sulfoxide (DMSO) and phosphate-buffered saline (PBS). It was then intraperitoneally injected into mice (20 mg/kg twice per week from 5-week-old). SLC-D011 and lonafarnib were orally administrated to mice daily at a concentration of 10 mg/ml in monoolein-based solution. Lonafarnib was generously provided by Merck, the Progeria Research Foundation (PRF) and the PRF Lonafarnib Pre-clinical Drug Supply Program. Control mice were treated with monoolein-based solution alone in the same way. Lmna^G609G/609G mice were treated with clear chemical solution throughout the life span, starting from 5 weeks of age. Lmna^G609G/+ mice were treated via intraperitoneal and oral administrations, starting from 32 weeks of age.
Fig. S10. Or al administration of SLC-D011 suppresses premature aging features of LmnaG609G/+ mi c e . A.
Gross morphology of SLC-D011 treated Lmna G609G/+ mice at 36 weeks old. […]

This note sets out measurements from paper PMC7782499, “Progerinin, an optimized progerin-lamin A binding inhibitor, ameliorates premature senescence phenotypes of Hutchinson-Gilford progeria syndrome” (Communications Biology, 2021).

`CC1(C)Oc2cc3oc(=O)ccc3cc2C[C@@H]1OC/C=C/c1ccccc1` [SLC-D011]: the Average life span was found to be 63 weeks (i.p. injection from 32 weeks old); 64.9 weeks (oral 50 mg/kg daily, 50 mg/kg); 65 weeks (oral 50 mg/kg daily, listed as progerinin, 50 mg/kg). The “Extension of life span” value (i.p. injection, longer than control (untreated)) is ~ 16 weeks. Under “oral 50 mg/kg daily”, the Maximum life span is listed as 65.5 weeks.
